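Assay format: 96-well plates, 48-hour exposure. GI50 is the concentration that inhibits growth by half. TGI denotes the concentration required for complete inhibition of growth.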
Columns and labels:
Assay in all cases: NCI-60 cell line screen, 48 h
786-0 renal = test system: 786-0 renal
A498 renal = test system: A498 renal
A549 NSCLC = test system: A549 NSCLC
ACHN renal = test system: ACHN renal
BT-549 breast = test system: BT-549 breast
CAKI-1 renal = test system: CAKI-1 renal
CCRF-CEM leukemia = test system: CCRF-CEM leukemia
COLO 205 colon = test system: COLO 205 colon
DU-145 prostate = test system: DU-145 prostate
EKVX NSCLC = test system: EKVX NSCLC
HCC-2998 colon = test system: HCC-2998 colon
HCT-116 colon = test system: HCT-116 colon
HCT-15 colon = test system: HCT-15 colon
HL-60(TB) leukemia = test system: HL-60(TB) leukemia
HOP-62 NSCLC = test system: HOP-62 NSCLC
HOP-92 NSCLC = test system: HOP-92 NSCLC
HS 578T breast = test system: HS 578T breast
HT29 colon = test system: HT29 colon
IGROV1 ovarian = test system: IGROV1 ovarian
K-562 leukemia = test system: K-562 leukemia
KM12 colon = test system: KM12 colon
LOX IMVI melanoma = test system: LOX IMVI melanoma
M14 melanoma = test system: M14 melanoma
MALME-3M melanoma = test system: MALME-3M melanoma
MCF7 breast = test system: MCF7 breast
MDA-MB-231 breast = test system: MDA-MB-231 breast
MDA-MB-435 = test system: MDA-MB-435
MOLT-4 leukemia = test system: MOLT-4 leukemia
NCI-H226 lung = test system: NCI-H226 lung
NCI-H23 lung = test system: NCI-H23 lung
NCI-H460 lung = test system: NCI-H460 lung
NCI-H522 lung = test system: NCI-H522 lung
NCI/ADR-RES ovarian = test system: NCI/ADR-RES ovarian
OVCAR-3 ovarian = test system: OVCAR-3 ovarian
OVCAR-4 ovarian = test system: OVCAR-4 ovarian
OVCAR-5 ovarian = test system: OVCAR-5 ovarian
OVCAR-8 ovarian = test system: OVCAR-8 ovarian
PC-3 prostate = test system: PC-3 prostate
RPMI-8226 leukemia = test system: RPMI-8226 leukemia
RXF 393 renal = test system: RXF 393 renal
SF-268 CNS = test system: SF-268 CNS
SF-295 CNS = test system: SF-295 CNS
SF-539 CNS = test system: SF-539 CNS
SK-MEL-2 melanoma = test system: SK-MEL-2 melanoma
SK-MEL-28 melanoma = test system: SK-MEL-28 melanoma
SK-MEL-5 melanoma = test system: SK-MEL-5 melanoma
SK-OV-3 ovarian = test system: SK-OV-3 ovarian
SN12C renal = test system: SN12C renal
SNB-19 CNS = test system: SNB-19 CNS
SNB-75 CNS = test system: SNB-75 CNS
SR leukemia = test system: SR leukemia
SW-620 colon = test system: SW-620 colon
T-47D breast = test system: T-47D breast
TK-10 renal = test system: TK-10 renal
U251 CNS = test system: U251 CNS
UACC-257 melanoma = test system: UACC-257 melanoma
UACC-62 melanoma = test system: UACC-62 melanoma
UO-31 renal = test system: UO-31 renal

Compound `CCN(CC)CCOc1ccc(/C=C2\CC3C4CC=C5C[C@@H](N6CCCC6)CC[C@]5(C)C4CC[C@]3(C)[C@H]2OC(C)=O)cc1OC` (stereo partly specified) has a GI50 (786-0 renal) of 635 nM, a TGI (786-0 renal) of 1300 nM and a GI50 (A498 renal) of 1960 nM. The TGI (A498 renal) was 3460 nM, the GI50 (A549 NSCLC) was 1640 nM and the TGI (A549 NSCLC) was 3670 nM. The GI50 (ACHN renal) was 791 nM, the TGI (ACHN renal) was 1560 nM and the GI50 (BT-549 breast) was 1800 nM. It also gave a TGI (BT-549 breast) of 3520 nM, a GI50 (CAKI-1 renal) of 1250 nM and a TGI (CAKI-1 renal) of 2990 nM. The GI50 (CCRF-CEM leukemia) was 197 nM, the TGI (CCRF-CEM leukemia) was 457 nM and the GI50 (COLO 205 colon) was 2040 nM. The TGI (COLO 205 colon) was 4280 nM, the GI50 (DU-145 prostate) was 1050 nM and the TGI (DU-145 prostate) was 6070 nM. The GI50 (EKVX NSCLC) was 1590 nM, the TGI (EKVX NSCLC) was 3470 nM and the GI50 (HCC-2998 colon) was 197 nM. It also gave a TGI (HCC-2998 colon) of 647 nM, a GI50 (HCT-116 colon) of 132 nM and a TGI (HCT-116 colon) of 548 nM. The GI50 (HCT-15 colon) was 1080 nM, the TGI (HCT-15 colon) was 2450 nM and the GI50 (HL-60(TB) leukemia) was 639 nM. It also gave a TGI (HL-60(TB) leukemia) of 1770 nM, a GI50 (HOP-62 NSCLC) of 899 nM and a TGI (HOP-62 NSCLC) of 2270 nM. The GI50 (HOP-92 NSCLC) was 152 nM, the TGI (HOP-92 NSCLC) was 1880 nM and the GI50 (HS 578T breast) was 1030 nM. The TGI (HS 578T breast) was 2320 nM, the GI50 (HT29 colon) was 144 nM and the TGI (HT29 colon) was greater than 44100 nM. It also gave a TGI (IGROV1 ovarian) of 1730 nM, a TGI (K-562 leukemia) greater than 36000 nM and a GI50 (KM12 colon) of 99.7 nM. It also gave a TGI (KM12 colon) of 1160 nM, a GI50 (LOX IMVI melanoma) of 1030 nM and a TGI (LOX IMVI melanoma) of 2400 nM. The GI50 (M14 melanoma) was 133 nM, the TGI (M14 melanoma) was 217 nM and the GI50 (MALME-3M melanoma) was 579 nM. For the same compound, the TGI (MALME-3M melanoma) was 1240 nM, the GI50 (MCF7 breast) was 1210 nM and the GI50 (MDA-MB-231 breast) was 1730 nM. For the same compound, the TGI (MDA-MB-231 breast) was 3250 nM, the GI50 (MDA-MB-435) was 277 nM and the TGI (MDA-MB-435) was 745 nM. The GI50 (MOLT-4 leukemia) was 91 nM, the TGI (MOLT-4 leukemia) was 345 nM and the GI50 (NCI-H226 lung) was 1260 nM. For the same compound, the TGI (NCI-H226 lung) was 3300 nM, the GI50 (NCI-H23 lung) was 1630 nM and the TGI (NCI-H23 lung) was 3320 nM. The GI50 (NCI-H460 lung) was 1600 nM, the TGI (NCI-H460 lung) was 4460 nM and the GI50 (NCI-H522 lung) was 2350 nM. It also gave a GI50 (NCI/ADR-RES ovarian) of 570 nM, a TGI (NCI/ADR-RES ovarian) of 1930 nM and a GI50 (OVCAR-3 ovarian) of 773 nM. The TGI (OVCAR-3 ovarian) was 1840 nM, the GI50 (OVCAR-4 ovarian) was 2140 nM and the TGI (OVCAR-4 ovarian) was 5650 nM. The GI50 (OVCAR-5 ovarian) was 1390 nM, the TGI (OVCAR-5 ovarian) was 3060 nM and the GI50 (OVCAR-8 ovarian) was 1070 nM. It also gave a TGI (OVCAR-8 ovarian) of 3470 nM, a GI50 (PC-3 prostate) of 1130 nM and a TGI (PC-3 prostate) of 2510 nM. The GI50 (RPMI-8226 leukemia) was 124 nM, the TGI (RPMI-8226 leukemia) was 5240 nM and the GI50 (RXF 393 renal) was 815 nM. For the same compound, the TGI (RXF 393 renal) was 2770 nM, the GI50 (SF-268 CNS) was 1860 nM and the TGI (SF-268 CNS) was 4560 nM. It also gave a GI50 (SF-295 CNS) of 1550 nM, a TGI (SF-295 CNS) of 2950 nM and a GI50 (SF-539 CNS) of 597 nM. The TGI (SF-539 CNS) was 1200 nM, the GI50 (SK-MEL-2 melanoma) was 3450 nM and the TGI (SK-MEL-2 melanoma) was greater than 100000 nM. The GI50 (SK-MEL-28 melanoma) was 1710 nM, the TGI (SK-MEL-28 melanoma) was 3560 nM and the GI50 (SK-MEL-5 melanoma) was 720 nM. It also gave a TGI (SK-MEL-5 melanoma) of 1390 nM, a GI50 (SK-OV-3 ovarian) of 2400 nM and a TGI (SK-OV-3 ovarian) of 6060 nM. For the same compound, the GI50 (SN12C renal) was 1190 nM, the TGI (SN12C renal) was 2640 nM and the GI50 (SNB-19 CNS) was 698 nM. The TGI (SNB-19 CNS) was 3470 nM, the GI50 (SNB-75 CNS) was 2210 nM and the TGI (SNB-75 CNS) was 5100 nM. For the same compound, the GI50 (SR leukemia) was 191 nM, the TGI (SR leukemia) was 444 nM and the GI50 (SW-620 colon) was 555 nM. For the same compound, the TGI (SW-620 colon) was 1920 nM, the GI50 (T-47D breast) was 1030 nM and the TGI (T-47D breast) was 2210 nM. For the same compound, the GI50 (TK-10 renal) was 1240 nM, the TGI (TK-10 renal) was 2670 nM and the GI50 (U251 CNS) was 1180 nM. It also gave a TGI (U251 CNS) of 2440 nM, a GI50 (UACC-257 melanoma) of 1910 nM and a TGI (UACC-257 melanoma) of 3920 nM. It also gave a GI50 (UACC-62 melanoma) of 715 nM, a TGI (UACC-62 melanoma) of 1410 nM and a GI50 (UO-31 renal) of 2280 nM.

Source: PubChem BioAssay (NCI)
